Test results as given in patent US9815863B2, “Hydrogen bond forming fluoro ketolides for treating diseases” (priority 2010, dated 2017).

Assays:
[1] = system: E. coli 70S ribosomes; experiment: Saturation (direct) binding of radiolabeled drug to E. coli ribosomes, spin-column
Protocol: (§1) Ribosomes were prepared from E. coli, strain MRE 600, S. aureus strain ATCC 29212, or S. aureus strain N315 by standard protocols (Spedding™, G. 1990. Isolation and analysis of ribosomes from prokaryotes, eukaryotes, and organelles, p. 1-29. In G. Spedding (ed.), Ribosomes and protein synthesis, a practical approach. Oxford University Press, Oxford, United Kingdom; Adams, P. D., P. V. Afonine, G. Bunkoczi, V. B. Chen, I. W. Davis, N. Echols, J. J. Headd, L. W. Hung, G. J. Kapral, R. W. Grosse-Kunstleve, A. J. McCoy, N. W. Moriarty, R. Oeffner, R. J. Read, D. C. Richardson, J. S. Richardson, T. C. Terwilliger, and P. H. Zwart. 2010. PHENIX: a comprehensive Python-based system for macromolecular structure solution. Acta Crystallogr. D. Biol. Crystallogr. 66:213-221).
(§2) Competition binding studies. […]
(§3) Direct antibiotic binding experiments were done by incubating ribosomes at a 100 nM concentration with varying concentrations of radiolabeled drug in a total volume of 160 μL in buffer A (20 mM Tris-HCl [pH 7.5], 10 mM MgCl2, 150 mM NH4Cl, 6 mM 2-mercaptoethanol) at 37° C. for 15 min, then at 20° C. for 10 min. […] Radioactivity was measured in a scintillation counter and used to calculate the amount of the radiolabeled drug bound to ribosomes.

[2] = biological target: S. aureus 70S ribosomes; experiment: Saturation (direct) binding of radiolabeled drug to S. aureus wild-type ribosomes, spin-column
Protocol: as §1, §2, §3

[3] = system: E. coli ribosomes (23S rRNA); experiment: RNA footprinting (ribosome chemical probing), wild-type E. coli ribosomes; assay type: binding; conditions: E. coli ribosomes, 100 μM antibiotic
Protocol: (§4) Ribosome chemical probing. rRNA probing was done following standard protocols (Merryman, C., and H. F. Noller. 1998. Footprinting and modification-interference analysis of binding sites on RNA, p. 237-253. In C. W. J. Smith (ed.), RNA:Protein Interactions, A Practical Approach. Oxford University Press, Oxford), with minor modifications. Briefly, 200 nM ribosomes were incubated with 100 μM antibiotic in 50 μL of buffer B (80 mM HEPES-KOH [pH 7.8], 20 mM MgCl2, 100 mM NH4Cl, 1.5 mM dithiothreitol) for 10 min at 37° C., followed by 10 min at 20° C. Modifying reagents (dimethyl sulfate [DMS], kethoxal, or 1-cyclohexyl-3-(2-morpholinoethyl)carbodiimide metho p-toluene sulfonate [CMCT]) were added and the modification reaction was carried out for 10 min at 37° C. After quenching the reaction and ethanol precipitation, rRNA was extracted and the distribution of modified nucleotides was assessed by primer extension.
(§5) Interactions of CEM-101 with wild-type E. coli and S. aureus ribosomes in solution. […] 1987. Chloramphenicol, erythromycin, carbomycin and vernamycin B protect overlapping sites in the peptidyl transferase region of 23S ribosomal RNA. Biochimie 69:879-884). Also included in this study was a C3-cladinose cousin of CEM-101, CEM-103, which lacks the C2-linked fluorine atom.

[4] = system: S. aureus ribosomes (23S rRNA); experiment: RNA footprinting (ribosome chemical probing), wild-type S. aureus ribosomes; assay type: binding; conditions: S. aureus ribosomes, 100 μM antibiotic
Protocol: as §4, §5

[5] = system: 2058-dimethylated ribosomes isolated from the S. aureus N315 strain; experiment: RNA footprinting of A2058-dimethylated (Erm-modified) ribosomes from S. aureus N315; assay type: binding; conditions: S. aureus N315 ribosomes dimethylated at A2058, drugs at 100 μM
Protocol: as §4
Interaction of CEM-101 with S. aureus ribosomes dimethylated at A2058 by Erm-methyltransferase. Erm-methyltransferase modifies A2058 in 23S rRNA by consecutively adding two methyl groups to the exocyclic amino group of the adenine base. Such modification completely blocks binding of erythromycin and similar macrolides, whereas its effect on binding of ketolides is less clear (Douthwaite, S., L. H. Hansen, and P. Mauvais. 2000. Macrolide-ketolide inhibition of MLS-resistant ribosomes is improved by alternative drug interaction with domain R of 23S rRNA. Mol. Microbiol. 36:183-193; Liu, M., and S. Douthwaite. 2002. Activity of the ketolide telithromycin is refractory to Erm monomethylation of bacterial rRNA. Antimicrob. Agents Chemother. 46:1629-1633). Therefore, interaction of CEM-101 with the ribosomes isolated from a clinical S. aureus strain N315, which carries five chromosomal copies of constitutively expressed ermA gene present in the Tn554 transposon (Kuroda, M., T. Ohta, I. Uchiyama, T. Baba, H. Yuzawa, I. Kobayashi, L. Cui, A. Oguchi, K. Aoki, Y. Nagai, J. Lian, T. Ito, M. Kanamori, H. Matsumaru, A. Maruyama, H. Murakami, A. Hosoyama, Y. Mizutani-Ui, N. K. Takahashi, T. Sawano, R. Inoue, C. Kaito, K. Sekimizu, H. Hirakawa, S. Kuhara, S. Goto, J. Yabuzaki, M. Kanehisa, A. Yamashita, K. Oshima, K. Furuya, C. Yoshino, T. Shiba, M. Hattori, N. Ogasawara, H. Hayashi, and K. Hiramatsu. 2001. Whole genome sequencing of meticillin-resistant Staphylococcus aureacs. Lancet 357:1225-1240) was investigated.
Footprinting analysis was used to test interactions of ketolides (CEM-101 and telithromycin) and cladinose-containing macrolides (CEM-103 and erythromycin) with the 2058-dimethylated ribosomes isolated from the S. aureus N315 strain. Ribosomes were incubated with the drugs (present at 100 μM concentration) and probed by DMS modification. Because dimethylated A2058 blocks progression of reverse transcriptase along the RNA template, a strong reverse transcriptase stop is observed at A2058 on the primer extension gel (Vester, B., and S. Douthwaite. 1994. Domain V of 23S rRNA contains all the structural elements necessary for recognition by the ErmE methyltransferase. J. Bacteriol. 176:6999-7004; Zhong, P., Z. Cao, R. Hammond, Y. Chen, J. Beyer, V. D. Shortridge, L. Y. Phan, S. Pratt, J. Capobianco, K. A. Reich, R. K. Flamm, Y. S. Or, and L. Katz. 1999. Induction of ribosome methylation in MLS-resistant Streptococcus pneumoniae by macrolides and ketolides. Microb. Drug Resist. 5:183-188). Therefore, it is impossible to use footprinting to evaluate interactions of macrolides with this position in the S. aureus N315 ribosomes. […]

[6] = system: ribosomes isolated from the S. aureus N315 strain; experiment: Binding of [14C]erythromycin to ribosomes from S. aureus N315; conditions: ribosomes from S. aureus N315, dimethylated at A2058
Protocol: Competition binding studies. Binding of erythromycin to E. coli and S. aureus ribosomes and competition experiments were done by size-exclusion chromatography using Bio-Gel P30 spin columns as described in Xiong, L., Y. Korkhin, and A. S. Mankin. 2005. Binding site of the bridged macrolides in the Escherichia coli ribosome. Antimicrob. Agents Chemother. 49:281-288.
Direct antibiotic binding experiments were done by incubating ribosomes at a 100 nM concentration with varying concentrations of radiolabeled drug in a total volume of 160 μL in buffer A (20 mM Tris-HCl [pH 7.5], 10 mM MgCl2, 150 mM NH4Cl, 6 mM 2-mercaptoethanol) at 37° C. for 15 min, then at 20° C. for 10 min. The reactions were loaded onto the spin columns and centrifuged in a swinging-bucket microcentrifuge rotor for 1 min at 1,000 g at room temperature. The flow-through solution was collected; 130 μL was mixed with 5 mL of the scintillation cocktail. Radioactivity was measured in a scintillation counter and used to calculate the amount of the radiolabeled drug bound to ribosomes.
Interaction of CEM-101 with S. aureus ribosomes dimethylated at A2058 by Erm-methyltransferase. Erm-methyltransferase modifies A2058 in 23S rRNA by consecutively adding two methyl groups to the exocyclic amino group of the adenine base. […]

[7] = biological target: ribosomes; conditions: literature values for erythromycin binding; read-out: Kd, previously published; cited from earlier work

For CC[C@H]1OC(=O)[C@H](C)[C@@H](O[C@H]2C[C@@](C)(OC)[C@@H](O)[C@H](C)O2)[C@H](C)[C@@H](O[C@@H]2O[C@H](C)C[C@H](N(C)C)[C@H]2O)[C@](C)(O)C[C@@H](C)C(=O)[C@H](C)[C@@H](O)[C@]1(C)O [erythromycin], the Kd [1] was 66 ± 11 nM, the Kd [2] was 11 ± 1 nM and the “Protection of A752 from DMS modification” value [3] was “fails to protect”. The “Protection of A752 from DMS modification” value [4] was “fails to protect”, the “Protection of A2059 from DMS modification (binding to Erm-modified ribosome)” value [5] was “not” and the “Protection of G2505 from kethoxal modification” value [5] was “did not protect”. For the same molecule, the “Protection of U2609 from modification with CMCT” value [5] was “did not protect”, the Binding to ribosomes [6] was “lack of binding” and the Kd [7] was 10 to 100 nM.
